Source: patent US7595401B2, “Therapeutic compounds and their use in cancer” (Myriad Pharmaceuticals, Inc., priority 2006, dated 2009)

Target: purified human Hsp90
Assay: Binding Assay: fluorescence polarization with BODIPY-labeled geldanamycin
Conditions: BODIPY-GM 10 nM, Hsp90 30 nM
Procedure, shortened: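 Compounds in 2% DMSO final compete with 10 nM BODIPY-GM for 30 nM purified human Hsp90, incubated overnight at room temperature in pH 7.3 HEPES buffer containing Na2MoO4 and DTT. Polarization (mP, ex/em 485/530) normalized to DMSO gives percent inhibition; autofluorescence-confounded data excluded.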

Row | Structure (SMILES) | IC50 [µM] | % Inhibition at 5 μM Compound Concentration [%]
1 | C=Cn1c(Sc2cc3c(cc2Br)OCO3)nc2c(N)ncnc21 [Example 498, 8-(6-bromo-benzo[1,3]dioxol-5-ylsulfanyl)-9-vinyl-9H-6-ylamine] | 0.525 | –
2 | C=Cn1cnc(N)c2nc(Sc3cc4c(cc3Br)OCO4)nc1-2 [Example 499, 8-(6-bromo-benzo[1,3]dioxol-5-ylsulfanyl)-3-vinyl-3H-6-ylamine] | – | 21
3 | COC(=O)[C@H](CCSC)NC(=O)N1CCCC(CCn2c(Sc3cc4c(cc3Br)OCO4)nc3c(N)ncnc32)C1 (stereo partly drawn) [Example 507, Methyl N-{[3-(2-{6-amino-8-[(6-bromo-1,3-benzodioxol-5-yl)thio]-9 H-purin-9-yl}ethyl)piperidin-1-yl]carbonyl}-L-methioninate] | 0.405 | –
4 | Nc1ncnc2c1nc(Sc1cc3c(cc1Br)OCO3)n2CCC1CCN(C(=O)C2CCCC2)CC1 [Example 510, 8-[(6-Bromo-1,3-benzodioxol-5-yl)thio]-9-{2-[1-(cyclopentylcarbonyl)piperidin-4-yl]ethyl}-9 H-purin-6-amine] | 0.25 | –
5 | CC1(C(=O)N2CCC(CCn3c(Sc4cc5c(cc4Br)OCO5)nc4c(N)ncnc43)CC2)CC1 [Example 516, 8-[(6-Bromo-1,3-benzodioxol-5-yl)thio]-9-(2-{1-[(1-methylcyclopropyl)carbonyl]piperidin-4-yl}ethyl)-9 H-purin-6-amine] | 0.6 | –
6 | CC1(C)C(C(=O)N2CCC(CCn3c(Sc4cc5c(cc4Br)OCO5)nc4c(N)ncnc43)CC2)C1(C)C [Example 520, 8-[(6-Bromo-1,3-benzodioxol-5-yl)thio]-9-(2-{1-[(2,2,3,3-tetramethylcyclopropyl)carbonyl]piperidin-4-yl}ethyl)-9 H-purin-6-amine] | > 2 | –
7 | Nc1ncn(CCC2CCN(C(=O)C3CC3(F)F)CC2)c2nc(Sc3cc4c(cc3Br)OCO4)nc1-2 (stereo not drawn) [Example 525, 8-[(6-Bromo-1,3-benzodioxol-5-yl)thio]-3-(2-{1-[(2,2-difluorocyclopropyl)carbonyl]piperidin-4-yl}ethyl)-3 H-purin-6-amine] | – | 13.00
8 | Nc1ncnc2c1nc(Sc1cc3c(cc1Br)OCO3)n2CCC1CCN(C(=O)C2(C(F)(F)F)CC2)CC1 [Example 526, 8-[(6-Bromo-1,3-benzodioxol-5-yl)thio]-9-[2-(1-{[1-(trifluoromethyl)cyclopropyl]carbonyl}piperidin-4-yl)ethyl]-9 H-purin-6-amine] | 0.3 | –
9 | Nc1ncn(CCC2CCN(C(=O)C3(C(F)(F)F)CC3)CC2)c2nc(Sc3cc4c(cc3Br)OCO4)nc1-2 [Example 527] | – | 19.00
10 | CC(=O)N1CCC(CCn2c(Sc3ccc4c(c3)CCO4)nc3c(N)ncnc32)CC1 [Example 528, 9-[2-(1-Acetylpiperidin-4-yl)ethyl]-8-(2,3-dihydro-1-benzofuran-5-ylthio)-9 H-purin-6-amine] | > 5 | –
11 | CC(=O)N1CCC(CCn2c(Sc3cc(Br)c4c(c3)CCO4)nc3c(N)ncnc32)CC1 [Example 530, 9-[2-(1-Acetylpiperidin-4-yl)ethyl]-8-[(7-bromo-2,3-dihydro-1-benzofuran-5-yl)thio]-9 H-purin-6-amine] | 2.5 | –
12 | Cc1cc(=O)oc2cc(Sc3nc4c(N)ncnc4n3CCC3CCN(C=O)CC3)ccc12 [Example 532, 4-(2-{6-Amino-8-[(4-methyl-2-oxo-2 H-chromen-7-yl)thio]-9 H-purin-9-yl}ethyl)piperidine-1-carbaldehyde] | 5 | –
13 | Cc1cc(=O)oc2cc(Sc3nc4c(N)ncn(CCC5CCN(C=O)CC5)c-4n3)ccc12 [Example 533, 4-(2-{6-Amino-8-[(4-methyl-2-oxo-2 H-chromen-7-yl)thio]-3 H-purin-3-yl}ethyl)piperidine-1-carbaldehyde] | – | 0.00
14 | COc1cc(Sc2nc3c(N)ncnc3n2CCC2CCN(C=O)CC2)c2ocnc2c1 [Example 534, 4-(2-{6-Amino-8-[(5-methoxy-1,3-benzoxazol-7-yl)thio]-9 H-purin-9-yl}ethyl)piperidine-1-carbaldehyde] | 5 | –
15 | COc1cc(Sc2nc3c(N)ncn(CCC4CCN(C=O)CC4)c-3n2)c2ocnc2c1 [Example 535, 4-(2-{6-Amino-8-[(5-methoxy-1,3-benzoxazol-7-yl)thio]-3 H-purin-3-yl}ethyl)piperidine-1-carbaldehyde] | – | 1.00

Next, values leading:

Row | IC50 [µM] | % Inhibition at 5 μM Compound Concentration [%] | Structure (SMILES)
16 | 0.06 | – | COC(=O)CCCNC(=O)N1CCC(CCn2c(Sc3cc4c(cc3Br)OCO4)nc3c(N)ncnc32)CC1 [Example 500, Methyl 4-({[4-(2-{6-amino-8-[(6-bromo-1,3-benzodioxol-5-yl)thio]-9H-purin-9-yl}ethyl)piperidin-1-yl]carbonyl}amino)butanoate]
17 | 0.14 | – | Nc1ncnc2c1nc(Sc1cc3c(cc1Br)OCO3)n2CCC1CCN(C(=O)NCCCC(=O)O)CC1 [Example 502, 4-({[4-(2-{6-Amino-8-[(6-bromo-1,3-benzodioxol-5-yl)thio]-9 H-purin-9-yl}ethyl)piperidin-1-yl]carbonyl}amino)butanoic acid]
18 | 0.19 | – | COC(=O)CCCNC(=O)N1CCCC(CCn2c(Sc3cc4c(cc3Br)OCO4)nc3c(N)ncnc32)C1 (stereo not drawn) [Example 503, Methyl 4-({[3-(2-{6-amino-8-[(6-bromo-1,3-benzodioxol-5-yl)thio]-9 H-purin-9-yl}ethyl)piperidin-1-yl]carbonyl}amino)butanoate]
19 | 0.085 | – | COC(=O)[C@H](CCSC)NC(=O)N1CCC(CCn2c(Sc3cc4c(cc3Br)OCO4)nc3c(N)ncnc32)CC1 [Example 505, Methyl N-{[4-(2-{6-amino-8-[(6-bromo-1,3-benzodioxol-5-yl)thio]-9 H-purin-9-yl}ethyl)piperidin-1-yl]carbonyl}-L-methioninate]
20 | 0.11 | – | Nc1ncnc2c1nc(Sc1cc3c(cc1Br)OCO3)n2CCC1CCN(C(=O)C2CCC2)CC1 [Example 512, 8-[(6-Bromo-1,3-benzodioxol-5-yl)thio]-9-{2-[1-(cyclobutylcarbonyl)piperidin-4-yl]ethyl}-9 H-purin-6-amine]
21 | 0.11 | – | Nc1ncnc2c1nc(Sc1cc3c(cc1Br)OCO3)n2CCC1CCN(C(=O)C2CC2)CC1 [Example 514, 8-[(6-Bromo-1,3-benzodioxol-5-yl)thio]-9-{2-[1-(cyclopropylcarbonyl)piperidin-4-yl]ethyl}-9 H-purin-6-amine]
22 | 0.14 | – | CC1CC1C(=O)N1CCC(CCn2c(Sc3cc4c(cc3Br)OCO4)nc3c(N)ncnc32)CC1 (stereo not drawn) [Example 518, 8-[(6-Bromo-1,3-benzodioxol-5-yl)thio]-9-(2-{1-[(2-methylcyclopropyl)carbonyl]piperidin-4-yl}ethyl)-9 H-purin-6-amine]
23 | 0.053 | – | Nc1ncnc2c1nc(Sc1cc3c(cc1Br)OCO3)n2CCC1CCN(C(=O)[C@H]2C[C@@H]2F)CC1 [Example 522, 8-[(6-Bromo-1,3-benzodioxol-5-yl)thio]-9-[2-(1-{[(2S)-2-fluorocyclopropyl]carbonyl}piperidin-4-yl)ethyl]-9 H-purin-6-amine]
24 | 0.1 | – | Nc1ncnc2c1nc(Sc1cc3c(cc1Br)OCO3)n2CCC1CCN(C(=O)C2CC2(F)F)CC1 (stereo not drawn) [Example 524, 8-[(6-Bromo-1,3-benzodioxol-5-yl)thio]-9-(2-{1-[(2,2-difluorocyclopropyl)carbonyl]piperidin-4-yl}ethyl)-9 H-purin-6-amine]
